Data published in the supplement of paper PMC8671470.
± gives the standard deviation of the averaged measurements.

Legend:
Details in all cases: 72 h
[1] = test system: KCL-22
Method in brief: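 Fifteen myeloid leukaemia cell lines were seeded in RPMI 1640 at densities titrated to the linear growth range and placed in 384-well plates with acoustically pre-printed compounds at five tenfold doses from 1 to 10,000 nM, in duplicate. After 72 h at 37 °C with 5% CO2, luminescent ATP viability was normalised to vehicle and to a positive control at 10 µM, and curves were fitted with a four-parameter log-logistic model. The IC50 was obtained from these fits.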

[2] = test system: K-562; assay: cell viability (% survival relative to DMSO control, bortezomib = 0%); higher = less cytotoxic
Method in brief: (§1)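 Percent survival figures are means of duplicate wells. They were obtained by CellTiter-Glo luminescence after 10 AML and 5 CML cell lines spent 72 h at 37 °C with 5% CO2 in 384-well plates with compounds at 1, 10, 100, 1000 or 10000 nM. Vehicle was set to 100% and a 10 µM positive control to 0%.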

[3] = test system: HL-60; assay: as above
Method in brief: as §1

[4] = test system: HEL; assay: as above
Method in brief: as §1

[5] = test system: SHI-1; assay: as above
Method in brief: as §1

[6] = test system: THP-1; assay: as above
Method in brief: as §1

[7] = test system: BV-173; assay: as above
Method in brief: as §1

[8] = test system: KG-1; assay: as above
Method in brief: as §1

[9] = test system: KU-812; assay: as above
Method in brief: as §1

[10] = test system: MOLM-13; assay: as above
Method in brief: as §1

[11] = test system: MV4-11; assay: as above
Method in brief: as §1

[12] = test system: LAMA-84; assay: as above
Method in brief: as §1

[13] = test system: ML-2; assay: as above
Method in brief: as §1

[14] = test system: KCL-22; assay: as above
Method in brief: as §1

[15] = test system: Mono-Mac-6; assay: as above
Method in brief: as §1

[16] = test system: NOMO-1; assay: as above
Method in brief: as §1

[17] = test system: HL-60; assay: cell viability (% survival relative to DMSO control); higher = less cytotoxic
Method in brief: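 HL-60 cells in RPMI 1640 with 10% FBS were rescreened against the full library on 384-well plates at five tenfold concentrations, 1–10,000 nM, in duplicate. Each screen was run with DMSO or 100 nM of one of three metabolic inhibitors, for 72 h at 37 °C, 5% CO2. Viability was read by CellTiter-Glo and normalised to DMSO and 10 μM proteasome-inhibitor wells. Where given, area under the curve came from four-parameter log-logistic fits (drc, PharmacoGx).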

O=C(C1CC1)N1CC[C@@H](C=C2NNC(=O)N2c2ccc(-c3ccc4occc4c3)cc2)C1
Details	IC50 (cell viability) [µM]
[1]	9.06

cell viability [%]
Details	1 nM	10 nM	100 nM	1000 nM	10000 nM
[2]	95.4	78.1	73	79	54.4
[3]	101	66.7	48.4	35	38.1
[4]	106	90.5	107	101	78.5
[5]	90.4	99.4	108	94.7	79.6
[6]	98.7	93.3	104	103	101
[7]	97.1	86.3	82.4	79	63.7
[8]	95.4	104	112	90.3	82.4
[9]	99.8	94.8	99.9	102	67.1
[10]	101	77.4	75.1	53.2	44.7
[11]	88.1	95.7	81	84	59.9
[12]	98.5	97.5	88.7	82.8	72.4
[13]	101	98.4	107	97.8	88.4
[14]	99.1	101	94.9	86.2	58.3
[15]	94.7	91.2	90	88	64.9
[16]	98.1	98.6	107	99.4	89.9

cell viability [%], [17]
Details	0.001 µM	0.01 µM	0.1 µM	1 µM	10 µM
co-treatment: AZD3965 100 nM	101 ± 1.3	104 ± 5.5	81.6 ± 8.7	76.9 ± 0.96	68.9 ± 1.8
co-treatment: DMSO vehicle	101 ± 2.7	105 ± 2.8	95.1 ± 3.5	92 ± 7.1	85.8 ± 5.1
co-treatment: GSK2194069 100 nM	96.3 ± 1.3	103.6 ± 0.49	92 ± 2.8	86.9 ± 1	82.4 ± 3.5
co-treatment: pictilisib 100 nM	97.7 ± 10	104 ± 7.5	92.53 ± 0.68	76.6 ± 8.2	73.1 ± 6.3

O=C1O[C@H]([C@@H](O)CO)C(O)=C1O [Vitamin C (ascorbate)]
Details	IC50 (cell viability) [µM]
[1]	> 10

cell viability [%]
Details	1 nM	10 nM	100 nM	1000 nM	10000 nM
[2]	99.2	96.3	92.8	104	89.4
[3]	104	91.2	101	108	84.7
[4]	103	106	98.9	107	113
[5]	110	106	105	102	114
[6]	96.4	100	103	103	99.9
[7]	94.2	113	103	99.2	118
[8]	112	103	118	97.5	106
[9]	96.8	104	99.5	95	108
[10]	101	103	91.6	94.2	107
[11]	102	102	111	111	92.1
[12]	106	106	113	101	102
[13]	103	107	100	102	121
[14]	90.2	96.2	97.7	88.1	92.6
[15]	103	109	98.8	101	108
[16]	95.5	100	110	97.8	102

cell viability [%], [17]
Details	0.001 µM	0.01 µM	0.1 µM	1 µM	10 µM
co-treatment: AZD3965 100 nM	89.82 ± 0.29	94.8 ± 6.4	101 ± 2	103 ± 4.3	67.9 ± 35
co-treatment: DMSO vehicle	102 ± 1.1	95.8 ± 7.2	98.77 ± 0.68	103 ± 2.7	88.3 ± 13
co-treatment: GSK2194069 100 nM	88.6 ± 17	100 ± 1.1	96.8 ± 6.4	101 ± 4.3	95.5 ± 1.6
co-treatment: pictilisib 100 nM	80.3 ± 1.6	81.6 ± 28	96.3 ± 3.5	95.46 ± 0.63	75.2 ± 19

NC(=O)c1cccc(-c2cccc(OC(=O)NC3CCCCC3)c2)c1 [URB-597]
Details	IC50 (cell viability) [µM]
[1]	> 10

cell viability [%]
Details	1 nM	10 nM	100 nM	1000 nM	10000 nM
[2]	102	98	100	90.6	100
[3]	98.7	89.2	114	94.3	103
[4]	102	104	103	110	95.2
[5]	93.9	86.1	89.4	100	110
[6]	98.5	93.8	105	99.1	102
[7]	91	104	105	104	115
[8]	102	103	102	92.8	101
[9]	92.1	99.1	103	103	87.2
[10]	99.9	93.7	105	93.8	117
[11]	96.4	96.5	109	99.6	89.5
[12]	99.8	96.9	99.6	98.3	96.1
[13]	92.2	94.2	105	105	114
[14]	105	106	104	98.2	109
[15]	102	99.6	97.2	117	123
[16]	101	103	105	96.1	110

cell viability [%], [17]
Details	0.001 µM	0.01 µM	0.1 µM	1 µM	10 µM
co-treatment: AZD3965 100 nM	101 ± 2.7	105 ± 2.3	101 ± 8.3	103 ± 8.5	103 ± 2
co-treatment: DMSO vehicle	100 ± 5.5	104 ± 6.3	99.6 ± 1.3	100 ± 1.9	102 ± 2.3
co-treatment: GSK2194069 100 nM	103 ± 3.4	113.65 ± 0.074	98.1 ± 5.4	101 ± 11	104 ± 6.6
co-treatment: pictilisib 100 nM	108 ± 3.8	106.8 ± 0.33	100 ± 8.5	97.2 ± 8.2	111 ± 5.6
